Tests used:
human IMPDH2 = details: human IMPDH2, no detectable activity; cited from earlier work
human IMPDH1 = details: human IMPDH1, no detectable activity; cited from earlier work
[1] = tested on: Toxo/CpIMPDH, strain that depends on CpIMPDH; assay type: cell-based, Toxoplasma gondii; details: in words
C. parvum = details: anticryptosporidial activity, literature values; cited from earlier work

| Structure (SMILES) | activity against T. gondii/CpIMPDH [1] | other results |
| --- | --- | --- |
| COc1ccc(NC(=O)Cn2c(-c3cscn3)nc3ccccc32)cc1 [C] | – | IC50 (human IMPDH2): > 50 µM; IC50 (human IMPDH1): > 50 µM |
| O=C(Cn1c(-c2nccs2)nc2ccccc21)Nc1ccc(Br)cc1 [Compound C64] | sub-micromolar | – |
| O=C(Cn1c(-c2nccs2)nc2ccccc21)Nc1ccc(Cl)c(Cl)c1 [Compound C84] | sub-micromolar | – |
| O=C(Cn1c(-c2cscn2)nc2ccccc21)Nc1ccc2ccccc2c1 [Compound C90] | sub-micromolar | – |
| O=C(Cn1c(-c2ccccn2)nc2ccccc21)Nc1ccc2ccccc2c1 [Compound C91] | sub-micromolar | – |
| O=C(Cn1c(-c2nccs2)nc2ccccc21)Nc1ccc2ccccc2c1 [Compound C97] | sub-micromolar | – |
| NC[C@@H]1O[C@H](O[C@H]2[C@@H](O)[C@H](O[C@@H]3[C@@H](O)[C@H](N)C[C@H](N)[C@H]3O[C@H]3O[C@H](CO)[C@@H](O)[C@H](O)[C@H]3N)O[C@@H]2CO)[C@H](N)[C@@H](O)[C@@H]1O [paromomycin] | – | EC50 (C. parvum): 65 to 130 µM |
